In PubChem BioAssay AID2423 (Broad Institute, 2010):
Several values for one entry are separate records, joined by “and”; a condition that tells them apart may be missing. Identical values can stand only once. Results filed as inconclusive are left out. Activity calls are given as the source filed them. No rule for the calls is given here.

The compounds below were run on C. albicans CaCi-8 + fluconazole, Alamar Blue growth, 48 h (assay: resistant C. albicans growth inhibition with fluconazole, dose response, CaCi-8 strain, Alamar Blue fluorescence (AID 2423)).
Compound `C/C(=N\O)c1cc(Cl)cc(Cl)c1O` has an EC50 of 3660 nM. Compound `COc1ccc(/C=N/OCC(=O)Nc2nc3ccccc3s2)cc1` has an EC50 of 3050 nM. `O=C(N/N=C/c1cc([N+](=O)[O-])ccc1O)C(O)(c1ccccc1)c1ccccc1` was tested, and the EC50 was 5790 nM. `C=CCc1cccc(/C=N/NC(=O)CNc2ccccc2OC)c1O` was tested, and the EC50 was 12500 nM. In the case of `O=C(Nc1ccccc1Cl)c1ccc([N+](=O)[O-])o1`, the EC50 is reported as 693 nM. `NNC(=O)c1cc(O)c(O)c(O)c1` was tested, and the EC50 was 8640 nM. For `Nc1ncnc(Sc2ncccn2)c1[N+](=O)[O-]`, the EC50 was 484 nM. Work on `CCC(C)c1ccc(O)c(NC(=S)NC(=O)c2cccnc2)c1` (stereo not given) yielded an EC50 of 878 nM. `O=C(NCCCc1ccccc1)Nc1cccc(Cl)c1` showed an EC50 of 11200 nM. With `CCNc1nc(NC(C)C)nc(NC(C)(C)C)n1` the EC50 was 1400 nM. With `COc1cccc(C2/C(=C(/O)c3ccc(C)cc3)C(=O)C(=O)N2Cc2ccco2)c1` (stereo not given) the EC50 was 7030 nM. `CCNC(=S)NNC(=O)c1cc(-c2cc(C)ccc2C)nc2ccccc12` gave an EC50 of 134 nM. In the case of `COc1ccc(/C=C2\N=C(SC)NC2=O)cc1`, the EC50 is reported as 3750 nM. `CCN(CC)c1ccc(/C=N/NC(=O)c2nnn(-c3nonc3N)c2C(C)C)c(O)c1` showed an EC50 of 472 nM. For `Cc1cc(NC(=O)c2c(F)cccc2Cl)n(-c2nc3ccccc3[nH]2)n1`, the EC50 was 7390 nM. For `COc1cccc(-n2nnnc2S(C)(=O)=O)c1`, the EC50 was > 15000 nM (inactive). `CCc1ccc(-c2csc3ncn(Cc4ccc(C(=O)O)cc4)c(=O)c23)cc1` gave an EC50 of 954 nM. `COc1ccc(OC)c2[nH]c(C(=O)N/N=C/c3ccccc3O)cc12` was tested, and the EC50 was 914 nM. With `Cn1c(/C=C/c2cccc([N+](=O)[O-])c2)c([N+](=O)[O-])c(=O)n(C)c1=O` the EC50 was 2530 nM. With `O=C(NCc1ccccc1)C1c2ccccc2Oc2ccccc21` the EC50 was 6030 nM. For `O=C(NC(Nc1nc2ccc([N+](=O)[O-])cc2s1)(C(F)(F)F)C(F)(F)F)c1ccccc1Cl`, the EC50 was 1040 nM. With `CC(C)CCOc1cccc(OCC(=O)Nc2ccncc2)c1` the EC50 was 3220 nM. Compound `COC(=O)c1c(C)n(-c2ccccc2)c2ccc(O)cc12` has an EC50 of 3160 nM. `O=C(c1ccc(Cl)cc1)N1CCN(c2ccnc3cc(Cl)ccc23)CC1` gave an EC50 of 863 nM. In the case of `CCc1ccc2oc(-c3ccc(OC)cc3)cc(=Nc3c(C)n(C)n(-c4ccccc4)c3=O)c2c1`, the EC50 is reported as 1540 nM. With `O=C(CNS(=O)(=O)c1ccc(Br)s1)NCC1COc2ccccc2O1` (stereo not given) the EC50 was > 15000 nM (inactive). With `COc1cnc(-c2ccccn2)nc1Sc1cccc(Cl)c1` the EC50 was > 16000 nM (inactive). `COc1ccccc1/C=C1\SC(=S)N(NS(=O)(=O)c2ccccc2)C1=O` was tested, and the EC50 was 1110 nM. With `O=C(NNC(=O)c1cc2ccccc2cc1O)c1cccs1` the EC50 was > 15000 nM (inactive). Compound `COc1ccc(OC)c(Nc2nc(-c3ccc(O)c(O)c3)cs2)c1` has an EC50 of 10800 nM. With `COc1ccc(NC(=O)c2ccc([N+](=O)[O-])o2)cc1` the EC50 was 1340 nM. For `COc1ccc(-n2nc(C(=O)NCC(=O)N3CCN(c4ccc(F)cc4)CC3)c3ccccc3c2=O)c(OC)c1`, the EC50 was 773 nM. Compound `Cc1cc(SCC(=O)N/N=C/c2ccc(O)cc2O)c(C)cc1Br` has an EC50 of 5010 nM. In the case of `COc1cccc(C(=O)NNC(=O)c2ccc3ccccc3c2O)c1`, the EC50 is reported as 9440 nM. With `CCOc1cc(S(=O)(=O)NCc2ccccc2)c(OCC)cc1-n1cnnn1` the EC50 was > 15000 nM (inactive). For `COc1ccc(C(=O)NCCN2CCOCC2)c(OC)c1OC`, the EC50 was > 15000 nM (inactive). Work on `COc1cc(C(Nc2ccccn2)c2ccc3ccc(C)nc3c2O)cc(OC)c1O` (stereo not given) yielded an EC50 of 2020 nM. In the case of `COc1cccc(CN(C(=O)c2cc3ccccc3oc2=O)C2CC2)c1`, the EC50 is reported as > 15000 nM (inactive). `COC(=O)C1CCN(Cc2c(C(=O)N3C[C@@H](C)O[C@@H](C)C3)nc3ccc(Cl)cn23)CC1` was tested, and the EC50 was > 15000 nM (inactive). Compound `Cn1c(SC2=CS(=O)(=O)c3ccccc32)nc2ccccc21` has an EC50 of 2320 nM. For `CCCOC(c1ccccc1)(c1ccc(C(F)(F)F)cc1)C(Oc1nc(C)cc(C)n1)C(=O)O` (stereo not given), the EC50 was 6470 nM. For `O=C(NC(c1ccc(Cl)cc1)c1cc(Cl)c2cccnc2c1O)c1cccnc1` (stereo not given), the EC50 was 329 nM. For `O=C(NCc1cccnc1)c1ccc(-c2cccc(Cl)c2Cl)o1`, the EC50 was 1760 nM. In the case of `COCCN1C(=O)C(O)=C(C(=O)c2ccco2)C1c1cccc(Oc2ccccc2)c1` (stereo not given), the EC50 is reported as 3840 nM. With `c1ccc2c(c1)CCN(c1ncnc3c1[nH]c1ccccc13)C2` the EC50 was 558 nM. `COc1ccc(C(=O)On2c(-c3ccc(Br)cc3)nc3ccccc3c2=O)cc1` gave an EC50 of 1110 nM. `Cc1cccc(N2CCN(c3nc(C)cc(C)c3C#N)CC2C)c1` (stereo not given) was tested, and the EC50 was > 16000 nM (inactive). Compound `Cc1cc(Br)ccc1OCC(=O)NNC(=O)C(=O)Nc1ccccc1` has an EC50 of 718 nM. `COc1ccc(-c2csc(-c3ccccc3)n2)c(OC)c1` gave an EC50 of 3810 nM. `CN(C)c1cc[n+](CC(=O)c2ccc(-c3ccccc3)cc2)cc1` was tested, and the EC50 was 4980 nM. `O=C(NCc1ccc(F)cc1)C(c1ccccc1)N(CC1CCCO1)C(=O)Cn1nnc2ccccc21` (stereo not given) showed an EC50 of 1160 nM. With `Cc1cccc(NC(=S)NNC(=O)c2csc(C(C)C)c2)c1` the EC50 was 4240 nM. In the case of `O=C(NNC(=O)c1ccc2ccccc2c1O)c1ccccc1Cl`, the EC50 is reported as 6110 nM. `O=C(CSCc1ccc(Cl)cc1)Nc1cc([N+](=O)[O-])ccc1O` was tested, and the EC50 was > 15000 nM (inactive). Compound `O=C(Nc1cccc(NC(=O)c2ccccc2Cl)c1)c1ccc([N+](=O)[O-])o1` has an EC50 of 716 nM. `CCn1c(NC(=O)c2cccs2)nc2ccccc21` gave an EC50 of 1280 nM. `Cc1ccc2[nH]c(=O)c(C3C(C#N)=C(N)Oc4c3ccc3cccnc43)cc2c1` (stereo not given) gave an EC50 of 971 nM. `CNC(=O)Nc1cc(C(F)(F)F)cc(C(F)(F)F)c1` was tested, and the EC50 was 742 nM. Compound `O=C(Nc1ccc(F)c(Cl)c1)NC1CC1` has an EC50 of 1490 nM. Work on `CSc1cnc2c(N)nc(N(C)C)nc2n1` yielded an EC50 of 12400 nM. For `Cc1ccccc1Nc1ncccc1C(=O)N1CCOCC1`, the EC50 was > 16000 nM (inactive). `CCCC(=O)NC(c1ccco1)c1cc([N+](=O)[O-])c2cccnc2c1O` (stereo not given) showed an EC50 of 840 nM. `C/C(=N\NC(=O)CCC(=O)Nc1ccc(C)c(C)c1)C1CC1` was tested, and the EC50 was > 15000 nM (inactive). `O=C(N/N=C/c1cc([N+](=O)[O-])ccc1O)C1C2CCCCC21` (stereo not given) gave an EC50 of 2160 nM. `Cc1n[nH]c(=S)n(NC(=O)CC(=O)Nn2c(=S)[nH]nc(C)c2=O)c1=O` was tested, and the EC50 was under 120 nM. For `CC1CCC(C(C)C)C(OC(=O)Cn2c(-c3ccc(Br)cc3)[n+](C)c3ccccc32)C1` (stereo not given), the EC50 was 534 nM and 752 nM. Work on `COc1ccc(-c2nn(-c3ccccc3)cc2/C=N/NC(=S)NC(C)C)cc1OC` yielded an EC50 of 1890 nM. With `O=C1c2ccccc2NC(c2cnc3ccccc3n2)N1O` (stereo not given) the EC50 was > 16000 nM (inactive). For `Cc1[nH]nc(-c2ccc(O)c(C)c2O)c1-c1cnn(-c2ccccc2)c1`, the EC50 was 3960 nM. Compound `Cc1cc(C)n(-c2nc3ccccc3c(=O)n2OCC#N)n1` has an EC50 of 456 nM. With `Cc1cc2ccccn2c1C(C[N+](=O)[O-])c1c(F)cccc1Cl` (stereo not given) the EC50 was 382 nM. For `O=[N+]([O-])c1ccc(C(=Nc2cccc3ccccc23)N2CCOCC2)cc1`, the EC50 was 1350 nM. For `O=C(Nc1nnc(-c2ccco2)o1)c1ccc(Cl)cc1`, the EC50 was 1160 nM. In the case of `Cc1ccc(-c2nnn(CC(=O)N(Cc3ccco3)C(C(=O)NC(C)(C)C)c3ccncc3)n2)o1` (stereo not given), the EC50 is reported as > 15000 nM (inactive). In the case of `CCOC(=O)c1ccc(NC(=O)Cn2ncc(Cl)c(Cl)c2=O)cc1`, the EC50 is reported as 894 nM. In the case of `CCCn1c(=N)n(CC(=O)c2ccc([N+](=O)[O-])cc2)c2ccccc21`, the EC50 is reported as > 16000 nM (inactive). For `CCCCCc1ccc(OCCCC[n+]2ccccc2)c(CCCCC)c1`, the EC50 was > 16000 nM (inactive). For `Cc1onc(C(=O)Nc2sc3c(c2C#N)CCCC3)c1[N+](=O)[O-]`, the EC50 was 989 nM. With `Cc1cccc2sc(NNC(=O)c3cc(-c4cccs4)nc4ccccc34)nc12` the EC50 was 583 nM. In the case of `O=C(OCn1ncc(Cl)c(Cl)c1=O)c1ccc(F)cc1`, the EC50 is reported as > 16000 nM (inactive).
